Where two headings read alike, the source gives them in different places.
Tests used:
human GLP1R = human GLP1R (Homo sapiens, UniProt P43220); experiment: cAMP activity assay, cells expressing human GLP1R; type: cell-based
Procedure: (§1) Activity of the incretin peptides or the conjugates at the Glucagon receptor (GCGR) and GLP-1 receptor (GLP1R) may be measured in a cAMP activity assay as follows.
(§2) Peptides are dissolved in 100% DMSO and serially diluted to generate 10 point titrations. The peptide solutions are then transferred into 384-well assay plates (150 nL/well). Assay ready frozen cells expressing human GLP1R or human GCGR are suspended in growth media consisting of DMEM medium (GIBCO), 10% FBS (GIBCO), 1×NEAA(GIBCO), 1×P/S (GIBCO), 10 μg/mL Blasticidin (GIBCO) and 200 μg/mL Hygromycin (GIBCO). […] The cell suspensions (15 μL) are then added to the assay plates containing the peptide solutions (30,000 cells/well for human GCGR; 10,000 cells/well for human GLP1R). The cells are incubated for one hour at room temperature in the dark.
(§3) Production of cAMP may be determined using HitHunterr cAMPXS kits (DiscoverX) following the manufacturer's protocol. The plates are incubated for overnight at room temperature in the dark. Luminescence may be measured using an EnVision Multilabel plate reader (Perkin Elmer). Native GLP-1 and Glucagon (Bachem) may be used as control peptides. EC50 values may be calculated using uses a 4 parameter logistic fit based on the Levenberg-Marquardt algorithm.

human GCGR = biological target: T1, human GCGR (Homo sapiens, UniProt P47871); experiment: cAMP activity assay, cells expressing human GCGR; type: cell-based; settings: for GCGR/GLP1R ratio: Table 5, ratio of hGCGR EC50 to hGLP1R EC50;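 as to all read-outs here: cAMP production read by luminescence after one hour of peptide exposure at room temperature, EC50 from logistic curve fit, native glucagon and GLP-1 as control peptides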
T1 construct: expressed in transfected cells; grown with Blasticidin and Hygromycin
T1 sequence (P47871 26-477): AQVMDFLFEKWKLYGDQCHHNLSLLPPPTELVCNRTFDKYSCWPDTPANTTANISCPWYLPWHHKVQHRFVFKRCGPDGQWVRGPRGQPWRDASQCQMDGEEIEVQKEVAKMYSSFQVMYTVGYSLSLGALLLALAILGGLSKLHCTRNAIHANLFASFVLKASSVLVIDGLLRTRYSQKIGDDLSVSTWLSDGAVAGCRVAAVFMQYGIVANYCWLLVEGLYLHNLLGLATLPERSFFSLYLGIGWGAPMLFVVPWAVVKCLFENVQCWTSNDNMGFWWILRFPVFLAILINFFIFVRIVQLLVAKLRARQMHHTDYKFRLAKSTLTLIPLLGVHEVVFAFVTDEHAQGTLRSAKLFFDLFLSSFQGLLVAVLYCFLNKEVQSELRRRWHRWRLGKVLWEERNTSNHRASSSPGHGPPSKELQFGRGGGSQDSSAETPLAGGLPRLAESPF
Procedure: as §1, §2, §3

[1] = Table 5, incretin peptides, cAMP, read-out: hGLP1R EC50

human GLP1R, sequence (P43220 24-463): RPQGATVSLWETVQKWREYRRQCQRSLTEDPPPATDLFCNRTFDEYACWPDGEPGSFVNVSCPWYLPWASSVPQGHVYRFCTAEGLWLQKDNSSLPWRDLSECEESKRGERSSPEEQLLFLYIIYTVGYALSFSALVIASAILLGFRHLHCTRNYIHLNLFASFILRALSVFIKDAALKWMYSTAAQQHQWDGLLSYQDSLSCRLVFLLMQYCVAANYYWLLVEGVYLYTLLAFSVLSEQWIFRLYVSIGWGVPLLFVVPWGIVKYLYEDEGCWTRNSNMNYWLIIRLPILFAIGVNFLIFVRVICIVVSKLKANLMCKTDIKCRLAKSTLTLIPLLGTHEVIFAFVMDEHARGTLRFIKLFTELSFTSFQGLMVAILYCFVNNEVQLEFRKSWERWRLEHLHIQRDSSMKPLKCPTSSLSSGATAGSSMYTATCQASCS

Compound	EC50 (human GLP1R) [nM]	EC50 (human GCGR) [nM]	GCGR/GLP1R ratio (human GCGR)	EC50 (human GLP1R; [1]) [nM]
CC(C)C[C@H](NC(=O)[C@H](Cc1c[nH]c2ccccc12)NC(=O)[C@H](CCC(N)=O)NC(=O)[C@@H](NC(=O)[C@H](Cc1ccccc1)NC(=O)[C@H](CC(=O)O)NC(=O)[C@H](CCC(N)=O)NC(=O)[C@H](C)NC(=O)[C@H](C)NC(=O)[C@H](CCCNC(=N)N)NC(=O)C(C)(C)NC(=O)[C@H](CC(=O)O)NC(=O)[C@H](CC(C)C)NC(=O)[C@H](Cc1ccc(O)cc1)NC(=O)[C@H](CCCCN)NC(=O)[C@H](CO)NC(=O)[C@H](Cc1ccc(O)cc1)NC(=O)[C@H](CC(=O)O)NC(=O)[C@H](CO)NC(=O)[C@@H](NC(=O)[C@H](Cc1ccccc1)NC(=O)[C@@H](NC(=O)CNC(=O)[C@H](CCC(N)=O)NC(=O)C(C)(C)NC(=O)[C@@H](N)Cc1c[nH]cn1)[C@@H](C)O)[C@@H](C)O)C(C)C)C(=O)N[C@@H](CC(C)C)C(=O)N[C@@H](CC(=O)O)C(=O)N[C@H](C(=O)N[C@@H](CCCCN)C(=O)N[C@@H](CCCCNC(=O)COCCOCCNC(=O)COCCOCCNC(=O)CC[C@H](NC(=O)CCCCCCCCCCCCCCCN=[N+]=[N-])C(=O)O)C(N)=O)[C@@H](C)O [PEP28]	0.16	0.17	1.1	–
CCCCCCCCCCCCCCCC(=O)N[C@@H](CCC(=O)N[C@@H](CCC(=O)NCCCC[C@H](NC(=O)[C@H](CC(=O)O)NC(=O)[C@H](CO)NC(=O)[C@@H](NC(=O)[C@H](Cc1ccccc1)NC(=O)[C@@H](NC(=O)CNC(=O)[C@H](CCC(N)=O)NC(=O)[C@@H](CO)NC(=O)[C@@H](N)Cc1c[nH]cn1)[C@@H](C)O)[C@@H](C)O)C(=O)N[C@@H](CO)C(=O)N[C@@H](CCCCN)C(=O)N[C@@H](Cc1ccc(O)cc1)C(=O)N[C@@H](CC(C)C)C(=O)N[C@@H](CC(=O)O)C(=O)N[C@@H](CCC(=O)O)C(=O)N[C@@H](CCCNC(=N)N)C(=O)N[C@@H](C)C(=O)N[C@@H](C)C(=O)N[C@@H](CCC(N)=O)C(=O)N[C@@H](CC(=O)O)C(=O)N[C@@H](Cc1ccccc1)C(=O)N[C@H](C(=O)N[C@@H](CCCCN=[N+]=[N-])C(=O)N[C@@H](Cc1c[nH]c2ccccc12)C(=O)N[C@@H](CC(C)C)C(=O)N[C@@H](CC(C)C)C(=O)N[C@@H](CCC(=O)N[C@H](C(N)=O)[C@@H](C)O)C(=O)O)C(C)C)C(=O)O)C(=O)O [PEP11]	–	0.03	0.4	0.06
CCCCCCCCCCCCCCCC(=O)N[C@@H](CCC(=O)N[C@@H](CCC(=O)NCCCC[C@H](NC(=O)[C@H](CC(=O)O)NC(=O)[C@H](CO)NC(=O)[C@@H](NC(=O)[C@H](Cc1ccccc1)NC(=O)[C@@H](NC(=O)CNC(=O)[C@H](CCC(N)=O)NC(=O)[C@@H](CO)NC(=O)[C@@H](N)Cc1c[nH]cn1)[C@@H](C)O)[C@@H](C)O)C(=O)N[C@@H](CO)C(=O)N[C@@H](CCCCN)C(=O)N[C@@H](Cc1ccc(O)cc1)C(=O)N[C@@H](CC(C)C)C(=O)N[C@@H](CC(=O)O)C(=O)N[C@@H](CCC(=O)O)C(=O)N[C@@H](CCCNC(=N)N)C(=O)N[C@@H](C)C(=O)N[C@@H](C)C(=O)N[C@@H](CCCCNC(=O)COCCOCCNC(=O)COCCOCCNC(=O)CCCCN=[N+]=[N-])C(=O)N[C@@H](CC(=O)O)C(=O)N[C@@H](Cc1ccccc1)C(=O)N[C@H](C(=O)N[C@@H](CCC(N)=O)C(=O)N[C@@H](Cc1c[nH]c2ccccc12)C(=O)N[C@@H](CC(C)C)C(=O)N[C@@H](CC(C)C)C(=O)N[C@@H](CC(=O)O)C(=O)N[C@H](C(N)=O)[C@@H](C)O)C(C)C)C(=O)O)C(=O)O [PEP17]	–	0.06	1.2	0.05
CCCCCCCCCCCCCCCC(=O)N[C@@H](CCC(=O)N[C@@H](CCC(=O)NCCCC[C@H](NC(=O)[C@H](CC(=O)O)NC(=O)[C@H](CO)NC(=O)[C@@H](NC(=O)[C@H](Cc1ccccc1)NC(=O)[C@@H](NC(=O)CNC(=O)[C@H](CCC(N)=O)NC(=O)C(C)(C)NC(=O)[C@@H](N)Cc1c[nH]cn1)[C@@H](C)O)[C@@H](C)O)C(=O)N[C@@H](CO)C(=O)N[C@@H](CCCCN)C(=O)N[C@@H](Cc1ccc(O)cc1)C(=O)N[C@@H](CC(C)C)C(=O)N[C@@H](CC(=O)O)C(=O)NC(C)(C)C(=O)N[C@@H](CCCNC(=N)N)C(=O)N[C@@H](CCCNC(=N)N)C(=O)N[C@@H](C)C(=O)N[C@@H](CCC(N)=O)C(=O)N[C@@H](CC(=O)O)C(=O)N[C@@H](Cc1ccccc1)C(=O)N[C@H](C(=O)N[C@@H](CCC(N)=O)C(=O)N[C@@H](Cc1c[nH]c2ccccc12)C(=O)N[C@@H](CC(C)C)C(=O)N[C@@H](CC(C)C)C(=O)N[C@@H](CC(=O)O)C(=O)N[C@H](C(=O)N[C@@H](CCCCN=[N+]=[N-])C(=O)N[C@@H](CCC(N)=O)C(=O)O)[C@@H](C)O)C(C)C)C(=O)O)C(=O)O [PEP6]	0.17	0.07	–	–
CCCCCCCCCCCCCCCC(=O)N[C@@H](CCC(=O)N[C@@H](CCC(=O)NCCCC[C@H](NC(=O)[C@H](CC(=O)O)NC(=O)[C@H](CO)NC(=O)[C@@H](NC(=O)[C@H](Cc1ccccc1)NC(=O)[C@@H](NC(=O)CNC(=O)[C@H](CCC(N)=O)NC(=O)[C@@H](CO)NC(=O)[C@@H](N)Cc1c[nH]cn1)[C@@H](C)O)[C@@H](C)O)C(=O)N[C@@H](CO)C(=O)N[C@@H](CCCCN)C(=O)N[C@@H](Cc1ccc(O)cc1)C(=O)N[C@@H](CC(C)C)C(=O)N[C@@H](CC(=O)O)C(=O)N[C@@H](CCC(=O)O)C(=O)N[C@@H](CCCNC(=N)N)C(=O)N[C@@H](C)C(=O)N[C@@H](C)C(=O)N[C@@H](CCC(N)=O)C(=O)N[C@@](C)(CC(=O)O)C(=O)N[C@@H](Cc1ccccc1)C(=O)N[C@H](C(=O)N[C@@H](CCCCN=[N+]=[N-])C(=O)N[C@@H](Cc1c[nH]c2ccccc12)C(=O)N[C@@H](CC(C)C)C(=O)N[C@@H](CCS(C)(=O)=O)C(=O)N[C@@H](CC(=O)O)C(=O)N[C@H](C(N)=O)[C@@H](C)O)C(C)C)C(=O)O)C(=O)O [PEP34]	0.05	0.05	1.0	–
CC(C)C[C@H](NC(=O)[C@H](Cc1ccc(O)cc1)NC(=O)[C@H](CCCCN)NC(=O)[C@H](CO)NC(=O)[C@H](CCCCN)NC(=O)[C@H](CC(=O)O)NC(=O)[C@H](CO)NC(=O)[C@@H](NC(=O)[C@H](Cc1ccccc1)NC(=O)[C@@H](NC(=O)CNC(=O)[C@H](CCC(N)=O)NC(=O)[C@@H](CO)NC(=O)[C@@H](N)Cc1c[nH]cn1)[C@@H](C)O)[C@@H](C)O)C(=O)N[C@@H](CC(=O)O)C(=O)N[C@@H](CCC(=O)O)C(=O)N[C@@H](CCCNC(=N)N)C(=O)N[C@@H](C)C(=O)N[C@@H](C)C(=O)N[C@@H](CCC(N)=O)C(=O)N[C@@H](CC(=O)O)C(=O)N[C@@H](Cc1ccccc1)C(=O)N[C@H](C(=O)N[C@@H](CCCCN=[N+]=[N-])C(=O)N[C@@H](Cc1c[nH]c2ccccc12)C(=O)N[C@@H](CC(C)C)C(=O)N[C@@H](CC(C)C)C(=O)N[C@@H](CC(=O)O)C(=O)N[C@H](C(N)=O)[C@@H](C)O)C(C)C [PEP69]	0.16	0.31	1.9	–
CCCCCCCCCCCCCCCC(=O)N[C@@H](CCC(=O)N[C@@H](CCC(=O)NCCCC[C@H](NC(=O)[C@](C)(CC(=O)O)NC(=O)[C@H](CO)NC(=O)[C@@H](NC(=O)[C@H](Cc1ccccc1)NC(=O)[C@@H](NC(=O)CNC(=O)[C@H](CCC(N)=O)NC(=O)[C@@H](CO)NC(=O)[C@@H](N)Cc1c[nH]cn1)[C@@H](C)O)[C@@H](C)O)C(=O)N[C@@H](CO)C(=O)N[C@@H](CCCCN)C(=O)N[C@@H](Cc1ccc(O)cc1)C(=O)N[C@@H](CC(C)C)C(=O)N[C@@H](CC(=O)O)C(=O)N[C@@H](CCC(=O)O)C(=O)N[C@@H](CCCNC(=N)N)C(=O)N[C@@H](C)C(=O)N[C@@H](C)C(=O)N[C@@H](CCC(N)=O)C(=O)N[C@@H](CC(=O)O)C(=O)N[C@@H](Cc1ccccc1)C(=O)N[C@H](C(=O)N[C@@H](CCCCN=[N+]=[N-])C(=O)N[C@@H](Cc1c[nH]c2ccccc12)C(=O)N[C@@H](CC(C)C)C(=O)N[C@@H](CCS(C)(=O)=O)C(=O)N[C@@H](CC(=O)O)C(=O)N[C@H](C(N)=O)[C@@H](C)O)C(C)C)C(=O)O)C(=O)O [PEP32]	0.04	0.06	1.5	–
CCCCCCCCCCCCCCCC(=O)N[C@@H](CCC(=O)N[C@@H](CCC(=O)NCCCC[C@H](NC(=O)[C@H](CC(=O)O)NC(=O)[C@H](CO)NC(=O)[C@@H](NC(=O)[C@H](Cc1ccccc1)NC(=O)[C@@H](NC(=O)CNC(=O)[C@H](CCC(N)=O)NC(=O)C(C)(C)NC(=O)[C@@H](N)Cc1c[nH]cn1)[C@@H](C)O)[C@@H](C)O)C(=O)N[C@@H](CO)C(=O)N[C@@H](CCCCN)C(=O)N[C@@H](Cc1ccc(O)cc1)C(=O)N[C@@H](CC(C)C)C(=O)N[C@@H](CC(=O)O)C(=O)NC(C)(C)C(=O)N[C@@H](CCCNC(=N)N)C(=O)N[C@@H](C)C(=O)N[C@@H](C)C(=O)N[C@@H](CCC(N)=O)C(=O)N[C@@H](CC(=O)O)C(=O)N[C@@H](Cc1ccccc1)C(=O)N[C@H](C(=O)N[C@@H](CCCCN=[N+]=[N-])C(=O)N[C@@H](Cc1c[nH]c2ccccc12)C(=O)N[C@@H](CC(C)C)C(=O)N[C@@H](CCS(C)(=O)=O)C(=O)N[C@@H](CCCCN)C(=O)NCC(=O)N[C@@H](CCCNC(=N)N)C(=O)NCC(N)=O)C(C)C)C(=O)O)C(=O)O [PEP3]	0.02	0.07	4.6	–
CC(C)C[C@H](NC(=O)[C@H](Cc1ccc(O)cc1)NC(=O)[C@H](CCCCN)NC(=O)[C@H](CO)NC(=O)[C@H](Cc1ccc(O)cc1)NC(=O)[C@H](CC(=O)O)NC(=O)[C@H](CO)NC(=O)[C@@H](NC(=O)[C@H](Cc1ccccc1)NC(=O)[C@@H](NC(=O)CNC(=O)[C@H](CCC(N)=O)NC(=O)C(C)(C)NC(=O)[C@@H](N)Cc1c[nH]cn1)[C@@H](C)O)[C@@H](C)O)C(=O)N[C@@H](CC(=O)O)C(=O)N[C@@H](C)C(=O)N[C@@H](CCCNC(=N)N)C(=O)N[C@@H](C)C(=O)N[C@@H](C)C(=O)N[C@@H](CCCCNC(=O)COCCOCCNC(=O)COCCOCCNC(=O)CC[C@H](NC(=O)CCCCCCCCCCCCCCCCC(=O)O)C(=O)O)C(=O)N[C@@H](CC(=O)O)C(=O)N[C@@H](Cc1ccccc1)C(=O)N[C@H](C(=O)N[C@@H](CCCCN=[N+]=[N-])C(=O)N[C@@H](Cc1c[nH]c2ccccc12)C(=O)N[C@@H](CC(C)C)C(=O)N[C@@H](CCS(C)(=O)=O)C(=O)N[C@@H](CC(=O)O)C(=O)N[C@H](C(N)=O)[C@@H](C)O)C(C)C [PEP30]	–	–	4.5	0.5
